Measurements published in publication PMC12447755, “β-Lactamase cleavable antimicrobial peptide–drug conjugates” (Chemical Science, 2025).
Read-outs that look alike come from different tables or passages of the source. Where a SMILES comes first, the peptide text is derived from it. Where no end group is shown, it is not given here.

What was measured:
[1] = system: P. aeruginosa strain PA14
[2] = system: P. aeruginosa strain PAO1
[3] = system: Pseudomonas aeruginosa strain PAO1; experiment: Initial susceptibility testing at a fixed concentration; format: cell-based; set-up: key: Tick (✓) represents OD600 comparable to no-growth control; cross (✗) represents OD600 comparable to growth control without any peptide; conditions: 256 μg mL−1 of peptide, overnight incubation, OD600 compared with growth and no-growth controls
[4] = Table S5, altered linking region between peptide and cephalosporin
[5] = Table 2, broth microdilution in MH medium, 37 °C, 16 h, MTT and OD600, triplicate

Molecule	PA14 MIC ([1]; PA14, 18 h) [µM]	PAO1 MIC ([2]; PAO1, 18 h) [µM]	Inh (inhibition) [3]	also measured
CC(=O)OCC1=C(C(=O)O)N2C(=O)[C@@H](NC(=O)CCCNc3nc4cc(n3)CCSC[C@H](NC(=O)[C@H](Cc3c[nH]c5ccccc35)NC(=O)[C@H](CCCCN)NC(=O)[C@H](C)NC(=O)[C@@H](N)Cc3ccccc3)C(=O)N[C@@H](Cc3ccccc3)C(=O)N[C@@H](CCCCN)C(=O)N[C@@H](Cc3c[nH]c5ccccc35)C(=O)N[C@@H](CC(C)C)C(=O)N[C@@H](CCCCN)C(=O)N[C@@H](CCCCN)C(=O)N[C@H](C(N)=O)CSCC4)[C@H]2SC1 [P9-8]	31	> 31		
CC(=O)OCC1=C(C(=O)O)N2C(=O)[C@@H](NC(=O)CCCNc3nc4cc(n3)CCSC[C@H](N)C(=O)N[C@@H](C)C(=O)N[C@@H](CCCCN)C(=O)N[C@@H](Cc3c[nH]c5ccccc35)C(=O)N[C@@H](C)C(=O)N[C@@H](Cc3ccccc3)C(=O)N[C@@H](CCCCN)C(=O)N[C@H](C(=O)N[C@@H](CC(C)C)C(=O)N[C@@H](CCCCN)C(=O)N[C@@H](CCCCN)C(N)=O)CSCC4)[C@H]2SC1 [P8-8]	> 35	> 35		
CC(=O)N[C@@H](Cc1c[nH]c2ccccc12)C(=O)N[C@H]1CSCCc2cc(nc(NCCCc3ccccc3)n2)CCSC[C@@H](C(=O)N[C@@H](Cc2ccccc2)C(N)=O)NC(=O)CNC(=O)[C@H](CCCNC(=N)N)NC(=O)[C@H](Cc2ccccc2)NC(=O)[C@H](CCCCN)NC(=O)[C@H](CCCCN)NC(=O)[C@H](CC(C)C)NC1=O [P3-1] (HELM PEPTIDE1{[ac].W.C.L.K.K.F.R.G.C.F.[am]}|CHEM1{[c1ccc(CCCNc2nc(CC[*:1])cc(CC[*:2])n2)cc1]}$PEPTIDE1,CHEM1,3:R3-1:R1|PEPTIDE1,CHEM1,10:R3-1:R2$$$V2.0)			✗	
KWVQNYMKHLGRKAHTLKT-NH2 [P6a, reference compound]			✓	
CC(=O)OCC1=C(C(=O)O)N2C(=O)[C@@H](NC(=O)CCCNc3nc4cc(n3)CCSC[C@H](N)C(=O)N[C@@H](Cc3ccccc3)C(=O)N[C@@H](C)C(=O)N[C@@H](CCCCN)C(=O)N[C@@H](Cc3c[nH]c5ccccc35)C(=O)N[C@@H](C)C(=O)N[C@@H](Cc3ccccc3)C(=O)N[C@H](C(=O)N[C@@H](Cc3c[nH]c5ccccc35)C(=O)N[C@@H](CC(C)C)C(=O)N[C@@H](CCCCN)C(=O)N[C@@H](CCCCN)C(N)=O)CSCC4)[C@H]2SC1 [P11-8]	> 32	> 32		
C[C@@H]1NC(=O)[C@H](Cc2c[nH]c3ccccc23)NC(=O)[C@H](CCCCN)NC(=O)[C@@H](NC(=O)[C@@H](N)Cc2ccccc2)CSCCc2cc(nc(NCCCC(=O)NCCCCCC(=O)N[C@@H]3C(=O)N4C(C(=O)O)=C(COC(=O)N5CCN(c6cc7c(cc6F)c(=O)c(C(=O)O)cn7C6CC6)CC5)CS[C@H]34)n2)CCSC[C@@H](C(=O)N[C@@H](CCCCN)C(=O)N[C@@H](CCCCN)C(N)=O)NC(=O)[C@H](Cc2c[nH]c3ccccc23)NC(=O)[C@H](CCCCN)NC(=O)[C@H](Cc2ccccc2)NC1=O [P2-20]	13	13		PA14 MIC ([1]; Table S5): 32 mg/L; PAO1 MIC [2, 4]: 32 mg/L
CC(=O)N[C@H](C(=O)N[C@@H](CC(C)C)C(=O)N[C@@H](CCCCN)C(=O)N[C@@H](CCC(N)=O)C(=O)N[C@@H](Cc1ccccc1)C(=O)N[C@H]1CSCCc2cc(nc(NCCCc3ccccc3)n2)CCSC[C@@H](C(=O)N[C@H](C(=O)N[C@@H](CCCCN)C(N)=O)C(C)C)NC(=O)[C@H](Cc2c[nH]c3ccccc23)NC(=O)[C@H](CCCCN)NC(=O)CNC(=O)[C@H](C(C)C)NC(=O)CNC(=O)[C@H](CCCCN)NC1=O)[C@@H](C)O [P1-1] (HELM PEPTIDE1{[ac].T.L.K.Q.F.C.K.G.V.G.K.W.C.V.K.[am]}|CHEM1{[c1ccc(CCCNc2nc(CC[*:1])cc(CC[*:2])n2)cc1]}$PEPTIDE1,CHEM1,7:R3-1:R1|PEPTIDE1,CHEM1,14:R3-1:R2$$$V2.0)			✗	
CC(C)C[C@H](NC(=O)[C@H](Cc1c[nH]cn1)NC(=O)[C@H](CCCCN)NC(=O)[C@H](CS)NC(=O)[C@H](Cc1ccc(O)cc1)NC(=O)[C@H](CC(N)=O)NC(=O)[C@H](CCC(N)=O)NC(=O)[C@@H](NC(=O)[C@H](Cc1c[nH]c2ccccc12)NC(=O)[C@@H](N)CCCCN)C(C)C)C(=O)NCC(=O)N[C@@H](CCCNC(=N)N)C(=O)N[C@@H](CCCCN)C(=O)N[C@@H](CS)C(=O)N[C@@H](Cc1c[nH]cn1)C(=O)N[C@H](C(=O)N[C@@H](CC(C)C)C(=O)N[C@@H](CCCCN)C(=O)N[C@H](C(N)=O)[C@@H](C)O)[C@@H](C)O [P6] (H-KWVQNYCKHLGRKCHTLKT-NH2)			✗	
CC(=O)OCC1=C(C(=O)O)N2C(=O)[C@@H](NC(=O)CCCNc3nc4cc(n3)CCSC[C@H](NC(=O)[C@H](CCCCN)NC(=O)[C@H](C)NC(=O)[C@@H](N)Cc3ccccc3)C(=O)N[C@@H](C)C(=O)N[C@@H](Cc3ccccc3)C(=O)N[C@@H](CCCCN)C(=O)N[C@@H](Cc3c[nH]c5ccccc35)C(=O)N[C@@H](CC(C)C)C(=O)N[C@@H](CCCCN)C(=O)N[C@H](C(N)=O)CSCC4)[C@H]2SC1 [P10-8]	> 35	> 35		
CC(C)C[C@@H]1NC(=O)[C@H](CCCNC(=N)N)NC(=O)[C@H](Cc2c[nH]cn2)NC(=O)[C@@H](NC(=O)[C@H](CC(C)C)NC(=O)[C@H](CCCCN)NC(=O)[C@H](CCCNC(=N)N)NC(=O)[C@H](Cc2ccccc2)NC(=O)[C@H](CC(C)C)NC(=O)[C@@H](N)CC(N)=O)CSCCc2cc(nc(NCCCc3ccccc3)n2)CCSC[C@@H](C(=O)N[C@@H](Cc2ccccc2)C(=O)NCC(=O)N[C@@H](Cc2ccc(O)cc2)C(=O)N[C@H](C(=O)N[C@@H](CC(C)C)C(=O)N[C@@H](CCCNC(=N)N)C(N)=O)[C@@H](C)O)NC(=O)[C@H](CCCNC(=N)N)NC(=O)[C@H](CCCNC(=N)N)NC(=O)[C@H](Cc2ccccc2)NC1=O [P7-1] (HELM PEPTIDE1{N.L.F.R.K.L.C.H.R.L.F.R.R.C.F.G.Y.T.L.R.[am]}|CHEM1{[c1ccc(CCCNc2nc(CC[*:1])cc(CC[*:2])n2)cc1]}$PEPTIDE1,CHEM1,7:R3-1:R1|PEPTIDE1,CHEM1,14:R3-1:R2$$$V2.0)			✗	
CC[C@H](C)[C@H](NC(=O)[C@H](CCCCN)NC(=O)[C@H](CCCCN)NC(=O)[C@@H]1CSCCc2cc(nc(NCCCc3ccccc3)n2)CCSC[C@H](NC(=O)[C@H](CC(C)C)NC(=O)[C@H](CCCNC(=N)N)NC(=O)[C@H](CCCNC(=N)N)NC(=O)[C@H](Cc2ccccc2)NC(=O)[C@@H](N)CCCNC(=N)N)C(=O)N[C@@H](CCCCN)C(=O)N[C@@H](CCCCN)C(=O)N[C@@H](Cc2c[nH]c3ccccc23)C(=O)N[C@@H](CCCNC(=N)N)C(=O)N[C@@H](CCCCN)C(=O)N[C@@H](CCCNC(=N)N)C(=O)N1)C(N)=O [P4-1] (HELM PEPTIDE1{R.F.R.R.L.C.K.K.W.R.K.R.C.K.K.I.[am]}|CHEM1{[c1ccc(CCCNc2nc(CC[*:1])cc(CC[*:2])n2)cc1]}$PEPTIDE1,CHEM1,6:R3-1:R1|PEPTIDE1,CHEM1,13:R3-1:R2$$$V2.0)			✓	
C[C@@H]1NC(=O)[C@H](Cc2c[nH]c3ccccc23)NC(=O)[C@H](CCCCN)NC(=O)[C@@H](NC(=O)[C@@H](N)Cc2ccccc2)CSCCc2cc(nc(NCCCC(=O)N[C@@H](C(=O)N[C@@H]3C(=O)N4C(C(=O)O)=C(COC(=O)N5CCN(c6cc7c(cc6F)c(=O)c(C(=O)O)cn7C6CC6)CC5)CS[C@H]34)c3ccccc3)n2)CCSC[C@@H](C(=O)N[C@@H](CCCCN)C(=O)N[C@@H](CCCCN)C(N)=O)NC(=O)[C@H](Cc2c[nH]c3ccccc23)NC(=O)[C@H](CCCCN)NC(=O)[C@H](Cc2ccccc2)NC1=O [P2-21]	13	27		PA14 MIC ([1]; Table S5): 32 mg/L; PAO1 MIC [2, 4]: 64 mg/L
RFRRLRKKWRKRLKKI-NH2 [P4a, reference compound]			✓	
CC[C@H](C)CCCCC(=O)N[C@@H](CCN)C(=O)N[C@H](C(=O)N[C@@H](CCN)C(=O)N[C@H]1CCNC(=O)[C@H]([C@@H](C)O)NC(=O)[C@H](CCN)NC(=O)[C@H](CCN)NC(=O)[C@H](CC(C)C)NC(=O)[C@@H](Cc2ccccc2)NC(=O)[C@H](CCN)NC1=O)[C@@H](C)O [Polymyxin B, reference compound] (HELM PEPTIDE1{[CC[C@H](C)CCCCC(=O)[*:2]].[Dab].T.[Dab].[Dab].[Dab].[dF].L.[Dab].[Dab].T}$PEPTIDE1,PEPTIDE1,5:R3-11:R2$$$V2.0; N-terminus assumed; bridges inferred)		0.83		MIC for PA14 ([1]; PA14, 18 h): 0.83 µM; PA14 MIC ([1]; Table S3, initial MIC values): 1 mg/L; PA14 MIC ([1]; Table S4): 0.83 µM; MIC for PAO1 ([2]; PAO1, 18 h): 1.7 µM; PAO1 MIC ([2]; Table S3, initial MIC values): 2 mg/L; PAO1 MIC ([2]; Table S4, cephalosporin-based staple 8 at different positions): 1 mg/L
CC(=O)OCC1=C(C(=O)O)N2C(=O)[C@@H](NC(=O)CCCNc3nc4cc(n3)CCSC[C@H](NC(=O)[C@H](CCCCN)NC(=O)[C@H](C)NC(=O)[C@H](Cc3ccccc3)NC(=O)[C@@H](N)CCCCN)C(=O)N[C@@H](C)C(=O)N[C@@H](Cc3ccccc3)C(=O)N[C@@H](CCCCN)C(=O)N[C@@H](Cc3c[nH]c5ccccc35)C(=O)N[C@@H](CC(C)C)C(=O)N[C@@H](CCCCN)C(=O)N[C@H](C(N)=O)CSCC4)[C@H]2SC1 [P12-8]	> 33	> 33		
C[C@@H]1NC(=O)[C@H](Cc2c[nH]c3ccccc23)NC(=O)[C@H](CCCCN)NC(=O)[C@@H](NC(=O)[C@@H](N)Cc2ccccc2)CSCCc2cc(nc(NCCCC(=O)N3CCN(c4cc5c(cc4F)c(=O)c(C(=O)O)cn5C4CC4)CC3)n2)CCSC[C@@H](C(=O)N[C@@H](CCCCN)C(=O)N[C@@H](CCCCN)C(N)=O)NC(=O)[C@H](Cc2c[nH]c3ccccc23)NC(=O)[C@H](CCCCN)NC(=O)[C@H](Cc2ccccc2)NC1=O [P2-12] (HELM PEPTIDE1{F.C.K.W.A.F.K.W.C.K.K.[am]}|CHEM1{[O=C(O)c1cn(C2CC2)c2cc(N3CCN(C(=O)CCCNc4nc(CC[*:1])cc(CC[*:2])n4)CC3)c(F)cc2c1=O]}$PEPTIDE1,CHEM1,2:R3-1:R1|PEPTIDE1,CHEM1,9:R3-1:R2$$$V2.0)				MIC for PA14 [1, 5]: > 64 mg/L; MIC for PAO1 [2, 5]: > 64 mg/L
